e = 2'-O-(2-methoxyethyl) (MOE); d = 2'-deoxy (DNA)
Key:
CETP mRNA = test: Liver CETP mRNA in huApoB/huCETP/mLDLr mouse model for cardiovascular disease (Example 7); assay type: in vivo, human; details: huApoB+/−huCETP+/−mLDLr+/− mice (Groups B-E); ASO 25 mg/kg s.c. twice per week, nicotinic acid 2 g/kg/day s.c. + 1% in diet, 6 weeks; relative to PBS control (Group A)
Text: The saline-injected group served as the control group to which oligonucleotide-treated groups were compared. […] This group served a negative control for the effects of the antisense oligonucleotides against CETP. The groups are further described in Table 27, and are designated letters A-F, by which they will be referred from henceforth.

human CETP mRNA [1] = test: Liver CETP mRNA in huCETP transgenic mice, normal chow (Example 5); assay type: in vivo; details: 50 mg/kg i.p. twice per week for 6 weeks, relative to PBS control
Procedure: Male huCETP transgenic mice were maintained on a 12-hour light/dark cycle and fed ad libitum normal Purina mouse chow. Animals were acclimated for at least 7 days in the research facility before initiation of the experiment. Antisense oligonucleotides (ASOs) were prepared in buffered saline (PBS) and sterilized by filtering through a 0.2 micron filter. Oligonucleotides were dissolved in 0.9% PBS for injection.
(§1) The mice were divided into five treatment groups. The first four groups received intraperitoneal injections of ISIS 349511, ISIS 349512, ISIS 349515, or ISIS 349517 at a dose of 50 mg/kg twice per week for 6 weeks. The fifth group received intraperitoneal injections of saline twice weekly for 6 weeks.
Twenty four hours after the final dose, the animals were sacrificed and liver tissue was isolated. Liver RNA was isolated for real-time PCR analysis of CETP. Two primer probe sets, hCETP (forward sequence […], designated herein as SEQ ID NO: 118; reverse sequence […], designated herein as SEQ ID NO: 119; probe sequence TGCGGACCGATGCCCCTGAX, designated herein as SEQ ID NO: 120) and hCETP2_LTS00182 (forward sequence […], designated herein as SEQ ID NO: 38; reverse sequence GGCTCACGCCTTTGCTGTT, designated herein as SEQ ID NO: 39: probe sequence CGGCTCGAGGTAGTGTTTACAGCCCTCX, designated herein as SEQ ID NO: 40), were used. These primer probe sets target the CETP mRNA transcript at different regions. As presented in Table 7, treatment with antisense oligonucleotides reduced CETP mRNA expression. The primer probe sets were used individually and collectively to measure CETP mRNA expression and gave similar results in all three cases. The RNA expression levels were normalized to murine Cyclophilin, a house-keeping gene, which is constitutively expressed. Cyclophilin levels were measured using the primer probe set described in Table 2. The results are expressed as percent inhibition of CETP mRNA, relative to the PBS control.

[2] = Plasma cholesterol and triglyceride levels in huCETP transgenic mice (Example 5); assay type: in vivo; details: 50 mg/kg i.p. twice per week; for HDL / LDL / Total cholesterol / Triglycerides / VLDL: plasma
Procedure: as §1
Plasma cholesterol were extracted at weeks 3 and 6 by the method of Bligh and Dyer (Bligh, E. G. and Dyer, W. J. Can. J. Biochem. Physiol. 37: 911-917, 1959) and measured with an Olympus clinical analyzer (Hitachi Olympus AU400e, Melville, N.Y.). HDL, LDL and VLDL cholesterol were individually measured by HPLC. Triglyceride levels were measured with the use of a commercially available triglyceride kit (DCL Triglyceride Reagent; Diagnostic Chemicals Ltd.). The results are presented in Tables 13 and 14 and are expressed in mg/dL. There was a significant increase in HDL levels in mice treated with ISIS oligonucleotides.

human CETP mRNA [3] = test: Antisense inhibition of human CETP mRNA in SW872 liposarcoma cells (Example 1); assay type: cell-based; details: 150 nM antisense oligonucleotide, lipofectin, ~24 hours, relative to untreated control cells
Method in brief: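 SW872 cells transfected (lipofectin) with 150 nM 5-10-5 MOE gapmer (phosphorothioate, 5-methylcytosine). After about 24 h, CETP mRNA measured by qRT-PCR, normalized to GAPDH; values are % inhibition versus untreated cells.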

[4] = Plasma glucose in huCETP transgenic mice (Example 5); assay type: in vivo; details: 50 mg/kg i.p. twice per week
Procedure: as §1
(§2) Plasma glucose values were determined using a Beckman Glucose Analyzer II (Beckman Coulter) by a glucose oxidase method (Lott, J. A. et al., Clin. Chem. 21: 1754-1760, 1975).

[5] = Plasma glucose, dose response (Example 9); assay type: in vivo, mice
Procedure: Another group received subcutaneous injections of control oligonucleotide ISIS 141923 at a dose of 50 mg/kg/week for 6 weeks. One group of mice received subcutaneous injections of PBS for 6 weeks. The PBS-injected group served as the control group to which treatment groups were compared.
as §2

| Substance | Percent inhibition of liver CETP mRNA expression (CETP mRNA) | Percent inhibition of liver CETP mRNA expression, Combined primer probe sets (human CETP mRNA [1]) | Percent inhibition of liver CETP mRNA expression, Primer probe set hCETP (human CETP mRNA [1]) | Percent inhibition of liver CETP mRNA expression, Primer probe set hCETP2_LTS00182 (human CETP mRNA [1]) | Percentage of HDL in total cholesterol ([2]; Week 3) | Percentage of HDL in total cholesterol ([2]; week 6) | HDL ([2]; week 3) | LDL ([2]; week 3) | Total cholesterol ([2]; week 3) | Triglycerides ([2]; week 3) | HDL ([2]; week 6) | LDL ([2]; week 6) | Total cholesterol ([2]; week 6) | Triglycerides ([2]; week 6) | VLDL ([2]; week 6) | % inhibition (human CETP mRNA [3]) | Glucose levels ([4]; week 3) | Glucose levels ([4]; week 6) | Glucose levels ([5]; 50 mg/kg/wk, Week 0) | Glucose levels ([5]; 50 mg/kg/wk, Week 3) | also measured |
| --- | --- | --- | --- | --- | --- | --- | --- | --- | --- | --- | --- | --- | --- | --- | --- | --- | --- | --- | --- | --- | --- |
| ISIS 349511: 5-10-5 MOE gapmer CCCGACCTCCTTGGAGACTT (sugars from the 5' end e5 d10 e5, backbone and methylation of C not given here) | 70% | 88% | 90% | 86% | 73% | 76% | 60 mg/dL | 15 mg/dL | 83 mg/dL | 87 mg/dL | 66 mg/dL | 17 mg/dL | 88 mg/dL | 84 mg/dL | 4 mg/dL | 66% | 286 mg/dL | 245 mg/dL |  |  |  |
| ISIS 349517: 5-10-5 MOE gapmer CAGCACTTTAATGCCAGTGG (sugars from the 5' end e5 d10 e5, backbone and methylation of C not given here) | 86% | 97% | 99% | 95% | 75% | 74% | 59 mg/dL | 14 mg/dL | 79 mg/dL | 68 mg/dL | 55 mg/dL | 15 mg/dL | 75 mg/dL | 103 mg/dL | 4 mg/dL | 100% | 333 mg/dL | 254 mg/dL | 339 mg/dL | 269 mg/dL | Glucose levels ([5]; 1.5 mg/kg/wk, Week 0): 375 mg/dL; Glucose levels ([5]; 1.5 mg/kg/wk, Week 3): 288 mg/dL; Glucose levels ([5]; 1.5 mg/kg/wk, Week 6): 348 mg/dL; Glucose levels ([5]; 5 mg/kg/wk, Week 0): 354 mg/dL; Glucose levels ([5]; 5 mg/kg/wk, Week 3): 287 mg/dL; Glucose levels ([5]; 5 mg/kg/wk, Week 6): 346 mg/dL; Glucose levels ([5]; 15 mg/kg/wk, Week 0): 339 mg/dL; Glucose levels ([5]; 15 mg/kg/wk, Week 3): 271 mg/dL; Glucose levels ([5]; 15 mg/kg/wk, Week 6): 329 mg/dL; Glucose levels ([5]; 50 mg/kg/wk, Week 6): 255 mg/dL |
| ISIS 141923: CCTTCCCTGAAGGTTCCTCC, 5-10-5 MOE gapmer, a control oligonucleotide which has no known murine target (sugars from the 5' end e5 d10 e5, backbone and methylation of C not given here) [reference compound] |  |  |  |  |  |  |  |  |  |  |  |  |  |  |  |  |  |  | 311 mg/dL | 256 mg/dL | Glucose levels ([5]; 50 mg/kg/wk, Week 6): 305 mg/dL |
